How the values were obtained:
[1] = system: SAR genes, WIR2 (PR5) and WCI3; test: Time-course Northern blot analysis of SAR gene induction in glyphosate tolerant wheat; conditions: leaf tissues of glyphosate tolerant wheat; INA 200 ppm in 0.1% surfactant blank
[2] = system: leaf rust spores (Puccinia triticina); test: Leaf rust infection of treated glyphosate tolerant wheat in the SAR study; assay type: in vivo; conditions: glyphosate tolerant wheat inoculated one day after treatment; WeatherMAX 0.75 lb/acre, INA 200 ppm

## O=C(O)c1cc(Cl)nc(Cl)c1 [INA, 2,6-dichloro isonicotinic acid]
[1]
  WCI3 gene induction (Northern blot): induced
[2]
  leaf rust infection / resistance: did not confer leaf rust resistance

Reference: patent US10575526B2 (priority 2004, dated 2020)
